For test [1], the system named is DHFR-overexpressing strain of Mtb (DHFR-oe). The format is cell-based, Mycobacterium tuberculosis.
For test [2] the test system is unchanged. The note with it: ref Nixon et al.[15]; cited from earlier work.

Structures are written as SMILES. Like-named read-outs stand apart in the source and are kept apart here. A value given as a limit tells only on which side of the number the result lay.

Turning to `N#Cc1ccc(Cn2ccc3c4c(N)nc(N)nc4ccc32)cc1` [PQD-1], in test [1], the “MIC90 DHFR-oe” value is listed as >2 µM. Turning to `COc1cc(NCc2ccc3nc(N)nc(N)c3c2C)cc(OC)c1OC` [Trimetrexate], in test [2], the “MIC90 DHFR-oe” value is reported as >100 µM. As to `CC1(C)N=C(N)N=C(N)N1OCCCOc1cc(Cl)c(Cl)cc1Cl` [WR99210], the “MIC90 DHFR-oe” value in test [1] lay within 15 to 30 µM.

The values above are taken from paper PMC4707675 (ACS infectious diseases, 2015).
